Laboratory results published in PMC3871595, “Structure Based Identification and Characterization of Flavonoids That Disrupt Human Papillomavirus-16 E6 Function” (PLoS ONE, 2013).

Experiments:
Caski cells [1] = assay: p53/p21 immunoblot analysis in Caski cells; assay type: cell-based, human; conditions: 40 hours
Description: Caski cells, which are derived from an HPV-16 infected cervical carcinoma and express HPV-16 E6 and E7, were used to determine whether these compounds interfere with HPV-16 E6 function. Inhibition of E6 should block its ability to promote the degradation of p53 thereby increasing the levels of p53. […] These compounds were also assayed in telomerase immortalized human retinal epithelial cells (RPE-1). […] If the elevation in p53 is dependent on the inhibition of E6 by these compounds, p53 should not increase in the RPE-1 cells.
(§1) 20,000 cells per cm^2 were plated in 6-well dishes. Cells were incubated for 24 hours at which time fresh media and compound were added. After 40 hours, cells were harvested, washed with cold PBS, and lysed in RIPA buffer with protease inhibitor. Each sample was separated on a 12% SDS-page gel, transferred to Immobilon-P membrane (Millipore) and blotted for the p53 (DO-1, Santa Cruz), p21 (c-19, Santa Cruz), and actin (A2066, Sigma). Protein quantification was performed with the Fujifilm LAS-4000 Multifunctional Imaging System. The signal intensity was measured for each band on an immunoblot, normalized to the loading control, and the fold increase was determined in relation to the appropriate DMSO treated control. RNA was isolated from these cells using Trizol Reagent (Invitrogen 15596-026). cDNA was generated using the Improm-II Reverse Transcription System (Promega A3801). qPCR was performed as described in the protocol for SsoFast EvaGreen supermix (BioRad 172-5023) using an BioRad CFX96 real-time PCR machine. Melting curves for each reaction were obtained. Each sample was assayed in triplicate and every plate contained a 5-point cDNA dilution course to calculate amplification efficiency for each primer pair. The Pfaffl method was used to determine the change in transcript levels relative to the DMSO and normalized to GAPDH.

p21^Cip1/Waf1 mRNA = assay: p21 mRNA qRT-PCR; assay type: cell-based, human; conditions: relative to DMSO, normalized to GAPDH
Description: It is possible that the increased p53 and p21 levels resulted from non-specific inhibition of protein degradation. However, if the increase in p21 was dependent upon p53 promoter activation, it should be possible to detect changes in the amounts of p21 mRNA detected in treated cells. To confirm that the increase in p21 protein level resulted from p53 activation, the levels of p21 mRNA were analyzed using qRT-PCR.
Figure 6 Induction of p21^Cip1/Waf1 mRNA. Compounds were tested for the ability to induce p21^Cip1/Waf1 expression at the mRNA level. Relative increases in transcripts were determined by qRT-PCR. […] Fold induction was calculated in relation to treatment with DMSO and normalized to GAPDH. Data were analyzed using one-way ANOVA with post-hoc analysis (Dunnetts; S.E.M.; n=2). Statistical significance (p<0.01) is indicated as * in comparison to Caski control (DMSO), # E6/E7 HFK control (DMSO), § HFK control (DMSO), and ◙ for RPE-1 control (DMSO).
20,000 cells per cm^2 were plated in 6-well dishes. Cells were incubated for 24 hours at which time fresh media and compound were added. […] Protein quantification was performed with the Fujifilm LAS-4000 Multifunctional Imaging System. The signal intensity was measured for each band on an immunoblot, normalized to the loading control, and the fold increase was determined in relation to the appropriate DMSO treated control. […]

[2] = test system: primary human foreskin keratinocytes; assay: p53/p21 immunoblot analysis in primary HFKs; assay type: cell-based; conditions: 40 hours
Description: Each compound was used to treat primary HFKs or HFKs immortalized through the over-expression of HPV16 E6 and E7 proteins.
as §1

E6/E7 HFKs = assay: cell viability (MTS, Celltiter 96 AQueous) E6/E7 HFKs; assay type: cell-based, human; conditions: 48 to 96 hours, relative to DMSO
Caski cells [3] = assay: SA-beta-gal senescence assay in Caski cells; assay type: cell-based, human; conditions: 72 hours, versus vehicle
Description: This was specific to Caski cells and was not observed in RPE-1, HeLa cells, or the HPV negative control cell lines C33a and HaCat (Figures S2A,B ). […] As observed in the viability assay, this occurred in both the HPV positive and negative cell lines. […] These cell lines were also assayed for apoptosis.
12,000 cells per cm^2 were plated in 24-well dishes; after 24 hours, fresh media and compound were added. SA-beta gal staining was performed as described. Images were collected using bright field microscopy. At least four fields (~100 cells per field) were read for each treatment, and experiments were repeated 3 times. The percent SA-beta-gal positive cells was calculated for each data point.

primary HFKs = assay: cell viability (MTS, Celltiter 96 AQueous) primary HFKs; assay type: cell-based, human; conditions: 48 hours, relative to DMSO
[4] = test system: interaction between anti-FLAG antibody and the FLAG epitope in the E6AP-BAP fusion; assay: FLAG/BAP specificity filter binding assay
Description: The collection of 72 available structural-lead compounds was tested in the filter-plate based in vitro E6-E6AP binding assay. Compounds were tested twice at concentrations of 10, 50, and 100 µM. […] Compounds that disrupted the Flag-BAP interaction with the same potency as the HPV-16 E6 and E6AP interaction were classified as non-specific and eliminated from further analysis.
Figure 3 Activity of flavonoids in the in vitro binding assay. Compounds were tested in vitro for the ability to disrupt the E6-E6AP interaction. […] Percent inhibition was determined by the amount of BAP activity remaining in the well after washing and normalized to DMSO. Data was plotted by linear regression for single site binding using Prism (n=3, S.E.M.).
This interaction between E6 and hDlg occurs at the C-terminus of E6 and is independent of the interaction between E6 and the charged leucine helix in E6AP [21, 22].

| SMILES | p21^Cip1/Waf1 protein levels (Caski cells [1]) | p53 protein levels (Caski cells [1]) | p21 mRNA level (p21^Cip1/Waf1 mRNA) | p21 protein levels [2] | p53 protein levels [2] | cell growth and viability (E6/E7 HFKs) | SA-β-gal staining (Caski cells [3]) | cell growth and viability (primary HFKs) | non-specific inhibition / specificity in FLAG-E6AP control assay [4] |
| --- | --- | --- | --- | --- | --- | --- | --- | --- | --- |
| O=c1cc(-c2ccc(O)c(O)c2)oc2cc(O)cc(O)c12 [luteolin, reference compound] | concomitant induction | increased p53 levels | increase in p21 mRNA | E6 independent increase in p53 and p21 | E6 independent increase in p53 and p21 | potent inhibitor of Caski, E6/E7 HFKs, and HeLa growth | no significant increase in β-gal staining |  |  |
| COc1cccc(-c2cc(=O)c3cc(-c4nnn[nH]4)ccc3o2)c1 [CAF-24] | concomitant induction | increased p53 levels | increase in p21 mRNA | little effect on p53 and p21 levels | little effect on p53 and p21 levels | selectively inhibited growth | increased more than two-fold | to a lesser extent, inhibit growth of the primary HFKs | increased specificity against the FLAG and hDlg control binding reactions |
